Reference: patent publication US8658604B2, “Template-fixed beta-hairpin peptidomimetics with protease inhibitory activity” (Polyphor Ltd, priority 2005, dated 2014)
Like-named read-outs stand apart in the source and are kept apart here. Where a SMILES comes first, the peptide text is derived from it.

What was measured:
[1] = target: Trypsin, from human pancreas (Homo sapiens, UniProt P07477); assay: Enzymatic assay, trypsin; settings: at 100 μM
[2] = target: T1, Elastase from human neutrophils (Homo sapiens, UniProt P08246); assay: Enzymatic assay, elastase
T1 sequence (P08246 30-267): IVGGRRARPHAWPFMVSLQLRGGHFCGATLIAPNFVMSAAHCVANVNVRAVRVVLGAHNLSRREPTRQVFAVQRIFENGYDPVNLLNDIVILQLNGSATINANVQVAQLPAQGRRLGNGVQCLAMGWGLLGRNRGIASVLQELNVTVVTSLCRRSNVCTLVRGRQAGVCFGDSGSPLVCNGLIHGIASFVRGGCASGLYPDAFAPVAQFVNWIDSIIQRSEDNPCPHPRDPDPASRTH

[3] = target: Coagulation Factor Xa, from uman plasma (Homo sapiens, UniProt P00742); assay: Enzymatic assay, coagulation factor Xa
[4] = target: T2, CathepsinG, from human neutrophils (Homo sapiens, UniProt P08311); assay: Enzymatic assay, cathepsin G
T2 sequence (P08311 21-244): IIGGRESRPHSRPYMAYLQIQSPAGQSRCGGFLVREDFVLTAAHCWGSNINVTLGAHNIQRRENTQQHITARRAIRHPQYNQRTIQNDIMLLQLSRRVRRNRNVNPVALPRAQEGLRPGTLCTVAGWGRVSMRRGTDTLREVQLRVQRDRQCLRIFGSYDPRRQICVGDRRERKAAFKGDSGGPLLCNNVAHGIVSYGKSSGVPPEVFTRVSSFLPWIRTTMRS

[5] = system: human red blood cells (hRBC); assay: Hemolysis
Protocol: The peptides were tested for their hemolytic activity against human red blood cells (hRBC). Fresh hRBC were washed three times with phosphate buffered saline (PBS) by centrifugation for 10 min at 2000×g. Peptides at a concentration of 100 μM were incubated with 20% v/v hRBC for 1 hour at 37° C. The final erythrocyte concentration was approximately 0.9×10^9 cells per ml. A value of 0% and, respectively, 100% cell lysis was determined by incubation of the hRBC in the presence of PBS alone and, respectively, 0.1% Triton X-100 in H2O. […] The 100% lysis value (OD540H20) gave an OD540 of approximately 1.3-1.8. Percent hemolysis was calculated as follows: (OD540peptide/OD540H20)×100%.

[6] = target: T3, Chymase, from human skin (Homo sapiens, UniProt P23946); assay: Enzymatic assay, chymase
T3 sequence (P23946 22-247): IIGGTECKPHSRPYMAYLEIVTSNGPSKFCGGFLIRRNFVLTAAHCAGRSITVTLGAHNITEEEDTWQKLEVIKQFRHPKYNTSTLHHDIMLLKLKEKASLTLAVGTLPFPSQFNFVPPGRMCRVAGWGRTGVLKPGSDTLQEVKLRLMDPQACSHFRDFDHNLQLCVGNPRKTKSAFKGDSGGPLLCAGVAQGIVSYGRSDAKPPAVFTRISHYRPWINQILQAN

[7] = target: Urokinase from human urine (Homo sapiens, UniProt P00749); assay: Enzymatic assay, urokinase
[8] = target: Chymotrypsin, from human pancreas (Homo sapiens, UniProt P17538); assay: Enzymatic assay, chymotrypsin; settings: at 100 μM
[9] = target: Thrombin, from Human Plasma (Homo sapiens, UniProt P00734); assay: Enzymatic assay, thrombin
[10] = system: Tryptase, from human lung; assay: Enzymatic assay, tryptase; settings: at 100 μM
[11] = system: HELA cells (Acc57); assay: Cytotoxicity assay (MTT reduction), HELA cells; type: cell-based; settings: Hela cells
Method in brief: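 HeLa cells were grown for 24 h, then exposed to peptides at 12.5, 25 and 50 μM in triplicate for 48 h at 37 °C. MTT reduction was read at 595 nm and growth % calculated relative to time-zero wells. LC50 interpolated by linear trend at −50% growth, GI50 at 50%.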

Chain of Chymotrypsin, from human pancreas (P17538 19-263): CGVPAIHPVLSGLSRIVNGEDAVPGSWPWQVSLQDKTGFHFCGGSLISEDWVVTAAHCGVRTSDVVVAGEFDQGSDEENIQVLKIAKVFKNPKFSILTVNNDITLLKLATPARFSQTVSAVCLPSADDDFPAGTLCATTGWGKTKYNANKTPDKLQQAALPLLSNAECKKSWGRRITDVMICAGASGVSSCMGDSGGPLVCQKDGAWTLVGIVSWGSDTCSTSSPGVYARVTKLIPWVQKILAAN
Chain of Coagulation Factor Xa, from uman plasma (P00742 235-488 limits assumed): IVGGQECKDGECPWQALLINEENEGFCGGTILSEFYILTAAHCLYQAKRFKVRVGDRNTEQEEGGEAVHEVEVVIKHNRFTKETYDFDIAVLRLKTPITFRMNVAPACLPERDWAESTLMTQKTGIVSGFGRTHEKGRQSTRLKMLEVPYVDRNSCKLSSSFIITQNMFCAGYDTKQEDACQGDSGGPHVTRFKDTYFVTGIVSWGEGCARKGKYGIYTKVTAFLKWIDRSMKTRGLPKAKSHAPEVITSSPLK
Chain of Coagulation Factor Xa, from uman plasma (P00742 41-179 limits assumed): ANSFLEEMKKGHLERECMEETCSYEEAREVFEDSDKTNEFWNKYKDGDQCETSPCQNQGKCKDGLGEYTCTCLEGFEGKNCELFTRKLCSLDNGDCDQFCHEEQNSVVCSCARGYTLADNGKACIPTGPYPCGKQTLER

Structure (SMILES)	Trypsin at 100 μM % [1] [%]	IC50 ([2]; Elastase IC50) [µM]	FXa at 100 μM % [3] [%]	IC50 ([4]; Cathepsin G IC50) [µM]	Hemolysis at 100 μM % [5] [%]	Chymase at 100 μM % [6] [%]	Urokinase at 100 μM % [7] [%]	Chymotrypsin at 100 μM % [8] [%]	Thrombin at 100 μM % [9] [%]	Tryptase at 100 μM % [10] [%]	Cytotoxicity LC50/GI50 Hela cells [11] [µM]	IC50 ([2]; read-out: Elastase IC50) [µM]	IC50 ([4]; read-out: Cathepsin G IC50) [µM]
CC[C@H](C)[C@@H]1NC(=O)[C@@H]2CCCN2C(=O)[C@@H]2CCCN2C(=O)[C@H](CC(=O)O)NC(=O)[C@H](CO)NC(=O)[C@H](CCCCN)NC(=O)[C@H]([C@@H](C)O)NC(=O)[C@@H]2CSSC[C@H](NC1=O)C(=O)N[C@@H](Cc1ccc(O)cc1)C(=O)N1CCC[C@@H]1C(=O)N1CCC[C@H]1C(=O)N[C@@H](Cc1ccccc1)C(=O)N2 [Ex. 5] (HELM PEPTIDE1{F.C.T.K.S.D.P.P.I.C.Y.[dP].P}$PEPTIDE1,PEPTIDE1,2:R3-10:R3|PEPTIDE1,PEPTIDE1,1:R1-13:R2$$$V2.0)	92	> 100	0.2	0.056	0	0	5.7	3	0.5	74	–	–	–
CCCC[C@@H]1NC(=O)[C@@H]2CCCN2C(=O)[C@@H]2CCCN2C(=O)[C@H](CC(=O)O)NC(=O)[C@H](CO)NC(=O)[C@H](CCCCN)NC(=O)[C@H]([C@@H](C)O)NC(=O)[C@@H]2CSSC[C@H](NC1=O)C(=O)N[C@@H](CO)C(=O)N1CCC[C@@H]1C(=O)N1CCC[C@H]1C(=O)N[C@@H](Cc1ccccc1)C(=O)N2 [Ex. 15] (HELM PEPTIDE1{F.C.T.K.S.D.P.P.[Nle].C.S.[dP].P}$PEPTIDE1,PEPTIDE1,2:R3-10:R3|PEPTIDE1,PEPTIDE1,1:R1-13:R2$$$V2.0)	95.0	> 100	–	0.056	0	12.7	–	54.2	–	–	100	–	–
CC[C@H](C)[C@@H]1NC(=O)[C@@H]2CCCN2C(=O)[C@H]2CCCN2C(=O)[C@H](CCCNC(=N)N)NC(=O)[C@@H]2CSSC[C@H](NC1=O)C(=O)N[C@@H]([C@@H](C)O)C(=O)N[C@@H](CCCCN)C(=O)N[C@@H](CO)C(=O)N[C@@H](CC(=O)O)C(=O)N1CCC[C@H]1C(=O)N1CCC[C@H]1C(=O)N[C@@H](CCC(N)=O)C(=O)N2 [Ex. 17] (HELM PEPTIDE1{I.C.T.K.S.D.P.P.Q.C.R.[dP].P}$PEPTIDE1,PEPTIDE1,2:R3-10:R3|PEPTIDE1,PEPTIDE1,1:R1-13:R2$$$V2.0)	90.0	> 100	–	0.055	0.1	27.6	–	16	0	90.4	94	–	–
CC[C@H](C)[C@@H]1NC(=O)[C@@H]2CCCN2C(=O)[C@H]2CCCN2C(=O)[C@H](CCCNC(=N)N)NC(=O)[C@@H]2CSSC[C@H](NC1=O)C(=O)N[C@@H]([C@@H](C)O)C(=O)N[C@@H](CCCCN)C(=O)N[C@@H](CO)C(=O)N[C@@H](CC(=O)O)C(=O)N1CCC[C@H]1C(=O)N1CCC[C@H]1C(=O)N[C@@H](Cc1ccc(O)cc1)C(=O)N2 [Ex. 18] (HELM PEPTIDE1{I.C.T.K.S.D.P.P.Y.C.R.[dP].P}$PEPTIDE1,PEPTIDE1,2:R3-10:R3|PEPTIDE1,PEPTIDE1,1:R1-13:R2$$$V2.0)	84	> 100	–	0.047	0	32.5	–	25	0	88.3	100	–	–
CC[C@H](C)[C@@H]1NC(=O)[C@@H]2CCCN2C(=O)[C@@H]2CCCN2C(=O)[C@H](CC(=O)O)NC(=O)[C@H](CO)NC(=O)[C@H](CCCCN)NC(=O)[C@H]([C@@H](C)O)NC(=O)[C@@H]2CSSC[C@H](NC1=O)C(=O)N[C@@H](Cc1ccc(O)cc1)C(=O)N1CCC[C@@H]1C(=O)N1CCC[C@H]1C(=O)N[C@@H](CC1CCCCC1)C(=O)N2 [Ex. 36] (HELM PEPTIDE1{[Cha].C.T.K.S.D.P.P.I.C.Y.[dP].P}$PEPTIDE1,PEPTIDE1,2:R3-10:R3|PEPTIDE1,PEPTIDE1,1:R1-13:R2$$$V2.0)	–	–	–	0.041	0	–	0	–	–	73.3	83	–	–
CCCC[C@@H]1NC(=O)[C@@H]2CCCN2C(=O)[C@@H]2CCCN2C(=O)[C@H](CC(=O)O)NC(=O)[C@H](CO)NC(=O)[C@H](CCCCN)NC(=O)[C@H]([C@@H](C)O)NC(=O)[C@@H]2CSSC[C@H](NC1=O)C(=O)N[C@@H](CO)C(=O)N1CCC[C@@H]1C(=O)N1CCC[C@H]1C(=O)N[C@@H](Cc1ccccc1)C(=O)N2 [Ex. 53] (HELM PEPTIDE1{F.C.T.K.S.D.P.P.[Nle].C.S.[dP].P}$PEPTIDE1,PEPTIDE1,2:R3-10:R3|PEPTIDE1,PEPTIDE1,1:R1-13:R2$$$V2.0)	95	–	–	–	0	12.7	–	54	–	–	63	> 100	0.056
CC[C@H](C)[C@@H]1NC(=O)[C@@H]2CCCN2C(=O)[C@H]2CCCN2C(=O)[C@H](CCCNC(=N)N)NC(=O)[C@@H]2CSSC[C@H](NC1=O)C(=O)N[C@@H]([C@@H](C)O)C(=O)N[C@@H](CCCCN)C(=O)N[C@@H](CO)C(=O)N[C@@H](CC(=O)O)C(=O)N1CCC[C@H]1C(=O)N1CCC[C@H]1C(=O)N[C@@H](CCC(N)=O)C(=O)N2 [Ex. 55] (HELM PEPTIDE1{I.C.T.K.S.D.P.P.Q.C.R.[dP].P}$PEPTIDE1,PEPTIDE1,2:R3-10:R3|PEPTIDE1,PEPTIDE1,1:R1-13:R2$$$V2.0)	90	–	–	–	0.1	27.6	–	16	–	90.4	94	> 100	0.055
CCCC[C@@H]1NC(=O)[C@@H]2CCCN2C(=O)[C@@H]2CCCN2C(=O)[C@H](CC(=O)O)NC(=O)[C@H](CO)NC(=O)[C@H](CCCCN)NC(=O)[C@H]([C@@H](C)O)NC(=O)[C@@H]2CSSC[C@H](NC1=O)C(=O)N[C@@H](CCCNC(=N)N)C(=O)N1CCC[C@@H]1C(=O)N1CCC[C@H]1C(=O)N[C@@H]([C@@H](C)CC)C(=O)N2 [Ex. 57] (HELM PEPTIDE1{I.C.T.K.S.D.P.P.[Nle].C.R.[dP].P}$PEPTIDE1,PEPTIDE1,2:R3-10:R3|PEPTIDE1,PEPTIDE1,1:R1-13:R2$$$V2.0)	94	–	32	–	0	26.9	4	0	11	82.2	–	> 100	0.041
